Experiments:
[1] = species: Rattus norvegicus; assay: Histamine level after treatment was determined for both agents (R-alpha-methylhistamine, thioperamide) in adbominal skin.; type: functional
[2] = species: Rattus norvegicus; assay: Histamine level after treatment was determined for both agents (R-alpha-methylhistamine, thioperamide) in lung.; type: functional
[3] = species: Rattus norvegicus; assay: Histamine level after treatment was determined for both agents (R-alpha-methylhistamine, thioperamide) in spleen; type: functional
[4] = species: Rattus norvegicus; assay: Histamine level after treatment was determined for both agents (R-alpha-methylhistamine, thioperamide) in cerebral cortex; type: functional
[5] = species: Rattus norvegicus; assay: Histamine level after treatment was determined for both agents (R-alpha-methylhistamine, thioperamide) in hypothalamus.; type: functional
[6] = species: Rattus norvegicus; assay: Histamine level after treatment was determined for both agents (R-alpha-methylhistamine, thioperamide) in; type: functional
[7] = target: Histamine H3 receptor (Rattus norvegicus) (UniProt Q9QYN8); assay: Evaluated for activity against H3 receptor and represented as %recovery histamine release at a concentration 5 x 10 E -6M.
Target sequence in this assay (Q9QYN8 whole entry, looked up): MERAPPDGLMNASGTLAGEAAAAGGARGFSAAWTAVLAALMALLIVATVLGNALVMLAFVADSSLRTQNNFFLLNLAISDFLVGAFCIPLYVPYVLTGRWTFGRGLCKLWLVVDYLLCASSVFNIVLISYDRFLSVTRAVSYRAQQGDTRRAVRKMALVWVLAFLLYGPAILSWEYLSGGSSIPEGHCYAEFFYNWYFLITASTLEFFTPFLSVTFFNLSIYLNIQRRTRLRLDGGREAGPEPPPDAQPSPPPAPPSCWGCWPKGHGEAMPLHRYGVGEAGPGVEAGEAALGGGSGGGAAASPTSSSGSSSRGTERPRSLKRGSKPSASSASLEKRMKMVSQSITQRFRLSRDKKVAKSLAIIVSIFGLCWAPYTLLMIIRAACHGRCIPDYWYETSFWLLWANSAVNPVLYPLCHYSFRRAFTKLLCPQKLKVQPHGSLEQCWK

[8] = target: Histamine H2 receptor (Cavia porcellus) (UniProt P47747); assay: Evaluated for activity against histamine H2 receptor in guinea pig atrium and represented as intrinsic activity; details: Cardiac atrium
[9] = target: Histamine H2 receptor (Cavia porcellus) (UniProt P47747); assay: Evaluated for activity against histamine H2 receptor in guinea pig gastric secretion and represented as alpha; type: tissue-based; details: Stomach
[10] = target: Histamine H2 receptor (Cavia porcellus) (UniProt P47747); assay: Evaluated for activity against histamine H2 receptor in guinea pig atrium and represented as alpha; type: tissue-based; details: Cardiac atrium
[11] = target: Histamine H2 receptor (Cavia porcellus) (UniProt P47747); assay: Evaluated for activity against histamine H2 receptor in guinea pig gastric secretion and represented as pD2; type: tissue-based; details: Stomach
[12] = target: T1, Histamine H3 receptor (Rattus norvegicus, UniProt Q9QYN8); assay: (§1) Evaluated for antagonist activity against Histamine H3 receptor and represented as KB.; type: functional
[13] = target: Histamine H2 receptor (Cavia porcellus) (UniProt P47747); assay: Evaluated for agonistic activity at histamine H2 receptor of guinea pig atrium and is represented as potency; type: functional, tissue-based; details: Cardiac atrium
[14] = target: Histamine H2 receptor (Cavia porcellus) (UniProt P47747); assay: Evaluated for agonistic (intrinsic) activity at histamine H2 receptor of guinea pig atrium and is represented as intrinsic activity; type: functional, tissue-based; details: Cardiac atrium
[15] = species: Rattus norvegicus; assay: Histamine level after treatment was determined in cerebral cortex; type: functional
[16] = species: Rattus norvegicus; assay: Histamine level after treatment was determined in spleen; type: functional
[17] = species: Rattus norvegicus; assay: Histamine level after treatment was determined in hypothalamus.; type: functional
[18] = target: Histamine H1 receptor (Cavia porcellus) (UniProt P31389); assay: Evaluated for activity at Histamine H1 receptor in guinea pig ileum; type: tissue-based
[19] = species: Rattus norvegicus; assay: Histamine level after treatment was determined in adbominal skin.; type: functional
[20] = target: Histamine H2 receptor (Cavia porcellus) (UniProt P47747); assay: Evaluated for activity at Histamine H2 receptor in guinea pig ileum; type: tissue-based
[21] = species: Rattus norvegicus; assay: (§2) Histamine level after treatment was determined in colon.; type: functional
[22] = species: Rattus norvegicus; assay: Relative inhibition of [3H]histamine release from pre-loaded slices of rat cerebral cortex; type: functional
[23] = target: Histamine H2 receptor (Cavia porcellus) (UniProt P47747); assay: Evaluated for their activity at histamine H2 receptor in guinea pig ileum.; type: tissue-based
[24] = species: Rattus norvegicus; assay: Inhibition of [3H]histamine release from preloaded slices of rat cerebral cortex as pD2; type: functional
[25] = target: Histamine H1 receptor (Cavia porcellus) (UniProt P31389); assay: Evaluated for their activity at histamine H1 receptor in guinea pig ileum.; type: tissue-based
[26] = target: Histamine H1 receptor (Cavia porcellus) (UniProt P31389); assay: Evaluated for antagonist activity against histamine H1 receptor and represented as KB; type: functional
[27] = target: Histamine H3 receptor (Rattus norvegicus) (UniProt Q9QYN8); assay: Evaluated for antagonist activity against histamine H3 receptor and represented as KB; type: functional
Target sequence in this assay (Q9QYN8 whole entry): as the sequence (Q9QYN8 whole entry, looked up) above

[28] = target: Histamine H3 receptor (Rattus norvegicus) (UniProt Q9QYN8); assay: Evaluated for antagonist activity against histamine H3 receptor and represented as KB.; type: functional
Target sequence in this assay (Q9QYN8 whole entry): as the sequence (Q9QYN8 whole entry, looked up) above

[29] = species: Rattus norvegicus; assay: Evaluated for inhibition of [3H]histamine release from preloaded slices and is represented as pD2; type: functional
[30] = species: Rattus norvegicus; assay: as §2; type: functional; remark: listed apart in the source
[31] = target: Histamine H3 receptor (Cavia porcellus) (UniProt Q9JI35); assay: as §1; type: functional
[32] = target: T1, Histamine H3 receptor; assay: Evaluated for antagonist activity against histamine H3 receptor and is represented as -log Ki.; type: functional
[33] = target: Histamine H2 receptor (Cavia porcellus) (UniProt P47747); assay: Evaluated for antagonist activity against histamine H2 receptor and represented as KB.; type: functional

Histamine H2 receptor (Cavia porcellus), sequence (P47747 whole entry): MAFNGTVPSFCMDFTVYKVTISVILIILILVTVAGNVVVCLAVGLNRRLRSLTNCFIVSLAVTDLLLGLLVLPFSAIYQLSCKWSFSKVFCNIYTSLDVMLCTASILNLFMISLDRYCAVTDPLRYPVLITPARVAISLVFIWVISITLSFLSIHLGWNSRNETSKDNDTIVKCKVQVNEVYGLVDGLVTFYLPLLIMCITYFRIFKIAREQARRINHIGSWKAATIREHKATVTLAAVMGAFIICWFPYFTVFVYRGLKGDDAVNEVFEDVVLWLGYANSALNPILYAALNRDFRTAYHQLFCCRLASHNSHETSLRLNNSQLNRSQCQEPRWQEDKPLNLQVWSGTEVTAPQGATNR
T1 sequence (Q9QYN8 whole entry): as the sequence (Q9QYN8 whole entry, looked up) above
Histamine H1 receptor (Cavia porcellus), sequence (P31389 whole entry): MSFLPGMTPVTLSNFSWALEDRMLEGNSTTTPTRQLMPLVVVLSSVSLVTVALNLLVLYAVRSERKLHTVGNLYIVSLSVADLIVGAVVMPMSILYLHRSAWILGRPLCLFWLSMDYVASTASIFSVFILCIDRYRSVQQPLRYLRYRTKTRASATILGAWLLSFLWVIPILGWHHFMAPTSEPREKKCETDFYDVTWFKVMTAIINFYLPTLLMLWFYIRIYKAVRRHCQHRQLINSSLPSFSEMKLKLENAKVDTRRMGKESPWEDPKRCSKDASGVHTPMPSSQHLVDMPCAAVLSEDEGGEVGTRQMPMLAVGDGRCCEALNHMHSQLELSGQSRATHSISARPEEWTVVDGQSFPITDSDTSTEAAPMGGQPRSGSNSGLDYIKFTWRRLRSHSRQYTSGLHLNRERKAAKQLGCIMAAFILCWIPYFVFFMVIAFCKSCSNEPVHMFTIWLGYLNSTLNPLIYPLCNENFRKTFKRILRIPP
Histamine H3 receptor (Cavia porcellus), sequence (Q9JI35 whole entry): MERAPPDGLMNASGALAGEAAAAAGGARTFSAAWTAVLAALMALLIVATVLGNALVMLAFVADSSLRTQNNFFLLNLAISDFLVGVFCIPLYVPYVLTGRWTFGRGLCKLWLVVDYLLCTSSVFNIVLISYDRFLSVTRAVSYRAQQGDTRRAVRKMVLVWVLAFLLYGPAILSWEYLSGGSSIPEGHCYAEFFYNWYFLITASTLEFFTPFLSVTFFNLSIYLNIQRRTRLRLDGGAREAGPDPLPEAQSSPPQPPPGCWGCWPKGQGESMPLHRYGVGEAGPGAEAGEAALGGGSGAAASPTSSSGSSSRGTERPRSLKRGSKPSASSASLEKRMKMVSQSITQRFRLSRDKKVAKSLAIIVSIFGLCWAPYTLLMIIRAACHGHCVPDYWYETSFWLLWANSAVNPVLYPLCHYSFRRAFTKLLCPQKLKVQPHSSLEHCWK

SMILES: C[C@@H](N)Cc1c[nH]cn1.S=C(NC1CCCCC1)N1CCC(c2c[nH]cn2)CC1
- Histamine level [1]: 73
- Histamine level [2]: 143
- Histamine level [3]: 96
- Histamine level [4]: 196
- Histamine level [5]: 205
- Histamine level [6]: 75

SMILES: N=C(N)Nc1nc(CSCC/N=C(\N)NCCCc2c[nH]cn2)cs1
- Release [7]: 100%
- intrinsic activity [8]: 1
- pD2 [9]: 8.2
- Activity [10]: 1
- pD2 [11]: 7.9

SMILES: O=C(CCc1ccccc1)NCCc1cnc[nH]1
- Ki [12]: 631 nM

SMILES: Cc1nc[nH]c1CSCCN/C(N)=N/C(C)Cc1c[nH]cn1 (stereo unspecified)
- pD2 [13]: 6.48
- Activity [14]: 0.8

SMILES: O=C(CCCc1ccccc1)NCCc1cnc[nH]1
- Ki [12]: 79.4 nM

SMILES: O=C(Cc1ccccc1)NCCc1c[nH]cn1
- Ki [12]: 1000 nM

SMILES: O=C(CCCc1ccccn1)NCCc1c[nH]cn1
- Ki [12]: 1000 nM

SMILES: C[C@@H](N)Cc1c[nH]cn1
- Histamine level [15]: 68
- Histamine level [16]: 69
- Histamine level [17]: 85
- Activity [18]: 0.49
- Histamine level [19]: 65
- Activity [20]: 1.02
- Histamine level [21]: 81
- Ratio_EC50 [22]: 1550

SMILES: CN(C)CCc1cnc[nH]1
- Activity [23]: 51
- pD2 [24]: 7.3
- Activity [25]: 44
- Ratio_EC50 [22]: 170

SMILES: Cc1nc[nH]c1CCN [4-METHYLHISTAMINE]
- Activity [18]: 0.23
- Activity [20]: 43
- Ratio_EC50 [22]: <0.008

SMILES: COc1ccc(CN(CCN(C)C)c2ccccn2)cc1
- KB [26]: 440 pM
- KB [27]: > 58 nM

SMILES: CN(C)CC[C@H](c1ccc(Cl)cc1)c1ccccn1
- KB [28]: > 0.058 µM

SMILES: CN(C)CC[C@@H](c1ccc(Cl)cc1)c1ccccn1
- KB [27]: > 58 nM

SMILES: CC(C)NCCc1c[nH]cn1
- pD2 [29]: <5.5

SMILES: S=C(NC1CCCCC1)N1CCC(c2cnc[nH]2)CC1 [THIOPERAMIDE]
- Histamine level [15]: 234
- Histamine level [30]: 80
- Histamine level [16]: 123
- Histamine level [17]: 245
- Histamine level [19]: 75

SMILES: CNC(=C[N+](=O)[O-])NCCSCc1ccc(CN(C)C)o1
- KB [31]: 1.2 µM

SMILES: O=C(CCCc1cnc[nH]1)NCCc1cnc[nH]1
- Ki [32]: 1000 nM

SMILES: CNC(=S)NCCSCc1[nH]cnc1C
- KB [33]: 920 nM
- KB [28]: 2.5 µM

Reference: ChEMBL document CHEMBL1124960, “Histamine H3 ligands: just pharmacological tools or potential therapeutic agents?” (J Med Chem, 1990)
